{"source": "paper PMC3454389", "about": "“Mining the Sinorhizobium meliloti Transportome to Develop FRET Biosensors for Sugars, Dicarboxylates and Cyclic Polyols” (PLoS ONE, 2012)", "key": {"SMc02324-CY": {"target": "SMc02324-CY (Sinorhizobium meliloti, UniProt Q92S11)", "sequence (Q92S11 entry or part of it)": "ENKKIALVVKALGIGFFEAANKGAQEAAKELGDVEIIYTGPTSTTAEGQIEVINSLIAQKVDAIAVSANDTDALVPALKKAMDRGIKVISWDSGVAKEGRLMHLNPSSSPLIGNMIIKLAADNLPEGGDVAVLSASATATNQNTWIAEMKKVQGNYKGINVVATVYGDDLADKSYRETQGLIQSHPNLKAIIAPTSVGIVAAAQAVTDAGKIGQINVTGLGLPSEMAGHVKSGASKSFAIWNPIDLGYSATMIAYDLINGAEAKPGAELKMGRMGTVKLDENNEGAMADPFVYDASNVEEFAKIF", "assay": "FRET biosensor SMc02324-CY, in vitro ligand titration", "format": "binding", "settings": "SMc02324-CY", "protocol": "(§1) Ligand-induced FRET ratio changes of purified FRET biosensor were screened using a LS55 luminescence spectrometer (PerkinElmer Instruments). Excitation (ex.) was at (λ/slit width) 433/10 nm (CFP) or 549/10 nm (OFP). Emission (em.) was measured at 475/10 nm (CFP), 527/10 nm (YFP), 573/10 nm (OFP) and 644/10 nm (RFP). To confirm that Aphrodite and mKate2 were properly folded their fluorescence was individually tested by direct excitation at 510/6 nm and 588/10 nm respectively.\n(§2) Affinity constants (Kd) of FRET biosensors with specific ligands were established using a monochromator microplate reader (Safire, Tecan, Switzerland; CFP ex.: (λ\\bandwidth) 433/12 nm, em.: 475/12 nm; YFP em.: 527/12 nm. OFP ex.: 533/12 nm, em.: 563/12 nm; RFP em.: 615/12 nm). Proteins were diluted to give relative fluorescence units (RFU) in the detection range of 30,000 to 50,000 RFU at a gain of 90 to 100, and then were added to a dilution series (10^−3 to 10^−11 M) of ligand in Tris-HCl (pH 8.5, 50 mM). The change in relative emission intensities at 527/477 nm (YFP/CFP) or 615/563 nm (RFP/OFP) was used to determine Kd by fitting the titration curves to a single-site-binding isotherm: [drawing 1] with: R, ratio; Rapo, ratio without ligand; Rsat, ratio at saturation of ligand; n, number of equal binding sites; [L], ligand concentration. Non-linear regression was used to fit the curves using SigmaPlot 11 (Systat Software Inc.) (Hill equation, 4 Parameters, b = 1). All measurements were done in quadruplicate."}, "SMc02324-RO": {"target": "SMc02324-RO (Sinorhizobium meliloti, UniProt Q92S11)", "sequence (Q92S11 entry or part of it)": "as above", "assay": "FRET biosensor SMc02324-RO, in vitro ligand titration", "format": "binding", "settings": "pROS (pLMB523), Tris-HCl pH 8.5", "protocol": "as §1\nas §2, with “Non-linear regression was used to fit the curves using SigmaPlot 11 (Systat Software Inc.) (Hill equation, 4 Parameters, b = 1). All measurements were done in quadruplicate.” left out"}, "SMc02774-CY": {"target": "SMc02774-CY (Sinorhizobium meliloti, UniProt Q92TD7)", "sequence (Q92TD7 entry or part of it)": "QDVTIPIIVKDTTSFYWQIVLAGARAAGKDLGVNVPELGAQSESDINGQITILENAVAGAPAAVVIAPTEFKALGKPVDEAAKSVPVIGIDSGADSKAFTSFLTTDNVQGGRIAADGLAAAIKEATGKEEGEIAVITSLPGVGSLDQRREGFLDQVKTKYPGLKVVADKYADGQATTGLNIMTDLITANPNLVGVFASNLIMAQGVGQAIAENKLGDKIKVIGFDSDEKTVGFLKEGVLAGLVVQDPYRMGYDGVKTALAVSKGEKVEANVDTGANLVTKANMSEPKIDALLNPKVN", "assay": "FRET biosensor SMc02774-CY, in vitro ligand titration", "format": "binding", "protocol": "as §1, §2"}, "SMc04259-CY": {"target": "SMc04259-CY (Sinorhizobium meliloti, UniProt Q92P64)", "sequence (Q92P64 entry or part of it)": "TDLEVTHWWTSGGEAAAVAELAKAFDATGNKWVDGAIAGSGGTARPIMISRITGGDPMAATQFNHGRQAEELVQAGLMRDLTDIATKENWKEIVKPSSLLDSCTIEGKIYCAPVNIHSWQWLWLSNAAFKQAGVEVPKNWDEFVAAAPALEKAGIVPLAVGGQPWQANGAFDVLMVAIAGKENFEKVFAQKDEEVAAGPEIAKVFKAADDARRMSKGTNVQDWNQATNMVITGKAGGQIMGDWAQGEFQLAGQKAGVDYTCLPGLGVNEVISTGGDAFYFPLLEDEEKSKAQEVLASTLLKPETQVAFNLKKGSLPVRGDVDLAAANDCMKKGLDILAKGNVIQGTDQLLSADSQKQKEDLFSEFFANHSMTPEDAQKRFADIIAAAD", "assay": "FRET biosensor SMc04259-CY, in vitro ligand titration", "format": "binding", "settings": "for change in FRET with compound: SMc04259-CY", "protocol": "as §1, §2"}, "SMc04259-RO": {"system": "SMc04259-RO", "assay": "SMc04259-RO, FRET ratio change on ligand", "format": "binding, Sinorhizobium meliloti", "protocol": "as §1\nas §2, with “Non-linear regression was used to fit the curves using SigmaPlot 11 (Systat Software Inc.) (Hill equation, 4 Parameters, b = 1). All measurements were done in quadruplicate.” left out"}, "rcc03024-CY (DctP)": {"target": "T1, rcc03024-CY (DctP) (Rhodobacter capsulatus, UniProt P37735)", "T1 construct": "made in house; host or cells: E. coli Rosetta2", "T1 sequence (P37735 27-333)": "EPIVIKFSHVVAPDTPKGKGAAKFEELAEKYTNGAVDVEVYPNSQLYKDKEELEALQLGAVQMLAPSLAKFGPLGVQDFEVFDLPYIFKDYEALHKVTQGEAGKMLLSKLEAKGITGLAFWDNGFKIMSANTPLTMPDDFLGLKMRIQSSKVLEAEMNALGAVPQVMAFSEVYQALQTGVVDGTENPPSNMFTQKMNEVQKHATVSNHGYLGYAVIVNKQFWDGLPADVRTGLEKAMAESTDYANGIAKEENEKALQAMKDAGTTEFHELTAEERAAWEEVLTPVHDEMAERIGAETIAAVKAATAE", "assay": "FRET biosensor rcc03024-CY, in vitro ligand titration", "format": "binding", "settings": "for Kd: pCYS (pLMB414), Tris-HCl pH 8.5", "excerpt": "Ligand-induced FRET ratio changes of purified FRET biosensor were screened using a LS55 luminescence spectrometer (PerkinElmer Instruments).\nNon-linear regression was used to fit the curves using SigmaPlot 11 (Systat Software Inc.) (Hill equation, 4 Parameters, b = 1). All measurements were done in quadruplicate."}, "RL2376-CY": {"target": "T2, RL2376-CY (Rhizobium leguminosarum, UniProt Q1MGQ3)", "T2 sequence (Q1MGQ3 24-320)": "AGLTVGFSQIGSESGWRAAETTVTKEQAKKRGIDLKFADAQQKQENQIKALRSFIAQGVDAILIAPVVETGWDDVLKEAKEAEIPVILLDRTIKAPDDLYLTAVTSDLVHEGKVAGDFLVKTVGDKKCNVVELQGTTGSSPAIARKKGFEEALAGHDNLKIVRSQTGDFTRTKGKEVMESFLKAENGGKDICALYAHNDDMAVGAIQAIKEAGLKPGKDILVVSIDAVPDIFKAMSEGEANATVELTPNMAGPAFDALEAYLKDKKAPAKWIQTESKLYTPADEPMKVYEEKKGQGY", "assay": "FRET biosensor RL2376-CY, in vitro ligand titration", "format": "binding", "protocol": "as §1, §2"}, "[1]": {"system": "genes encoding the ABC-transporter (RL2376-9)", "settings": "cited from earlier work"}, "rcc03024-RO": {"target": "T3, rcc03024-RO (Rhodobacter capsulatus, UniProt P37735)", "T3 construct": "made in house; host or cells: E. coli Rosetta2", "T3 sequence (P37735 27-333)": "T1 sequence (P37735 27-333)", "assay": "rcc03024-RO, FRET ratio change on ligand", "format": "binding", "protocol": "as §1\nas §2, with “Non-linear regression was used to fit the curves using SigmaPlot 11 (Systat Software Inc.) (Hill equation, 4 Parameters, b = 1). All measurements were done in quadruplicate.” left out"}, "[2]": {"target": "T4, eCFP-MglB-Aphrodite fusion protein (Escherichia coli, UniProt P0AEE5, F39A)", "T4 construct": "MglB core from pFLIPglu600µΔ13 - SpeI - BD cloning in pCYS - For; made in house; host or cells: E. coli Rosetta2", "T4 sequence (P0AEE5 24-332 F39A limits assumed)": "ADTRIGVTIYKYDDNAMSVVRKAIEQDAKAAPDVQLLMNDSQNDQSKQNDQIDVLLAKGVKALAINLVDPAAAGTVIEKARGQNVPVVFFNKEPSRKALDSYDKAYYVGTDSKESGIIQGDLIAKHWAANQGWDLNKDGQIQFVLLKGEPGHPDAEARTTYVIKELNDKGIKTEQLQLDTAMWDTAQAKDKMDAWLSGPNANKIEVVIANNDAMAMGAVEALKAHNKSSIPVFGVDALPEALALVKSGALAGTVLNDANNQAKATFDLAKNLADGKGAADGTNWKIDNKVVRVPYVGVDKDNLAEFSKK", "assay": "Validation of pCYS with glucose binding protein MglB FRET fusion", "settings": "purified eCFP-MglB-Aphrodite from pLMB240 (pCYS)", "protocol": "The FRET vector pCYS was tested by inserting the glucose binding protein from Escherichia coli (MglB). This SBP was reported to have a FRET Δ ratio ranging from −8% to −28% upon binding of glucose that depended on linker length. The purified eCFP-MglB-Aphrodite fusion protein from pLMB240 (Table S1) gave a FRET Δ ratio of −19%, thus validating this vector and the choice of short linkers (of four and three amino acids) which we had incorporated into its design (Fig. 1B).\nas §1"}, "[3]": {"target": "T4, eCFP-MglB-Aphrodite fusion protein", "settings": "MglB sensors, depended on linker length; cited from earlier work"}, "SMb20712-CY": {"target": "T5, SMb20712-CY (Sinorhizobium meliloti, UniProt Q926E6)", "T5 sequence (Q926E6 21-309)": "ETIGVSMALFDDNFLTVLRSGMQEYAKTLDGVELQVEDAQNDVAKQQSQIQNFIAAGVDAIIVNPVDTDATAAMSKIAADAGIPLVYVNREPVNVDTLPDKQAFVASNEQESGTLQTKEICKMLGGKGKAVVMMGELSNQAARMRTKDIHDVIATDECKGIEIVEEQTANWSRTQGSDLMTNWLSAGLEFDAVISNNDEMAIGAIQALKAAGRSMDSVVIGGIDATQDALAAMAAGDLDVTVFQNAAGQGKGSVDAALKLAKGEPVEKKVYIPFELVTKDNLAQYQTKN", "assay": "FRET biosensor SMb20712-CY, in vitro ligand titration", "format": "binding", "settings": "pCYS (pLMB319), Tris-HCl pH 8.5", "protocol": "as §1, §2"}}, "data": [{"smiles": "C[C@H](O)[C@@H](O)[C@@H](O)[C@H](O)C=O", "note": "[L-fucose]", "values": [{"measurement": "Kd", "setting": "SMc02324-CY; pCYS (pLMB291), Tris-HCl pH 8.5", "result": 11000, "unit": "nM"}, {"measurement": "Kd", "setting": "SMc02324-RO", "result": 19000, "unit": "nM"}, {"measurement": "difference between the affinity of SMc02774-CY for L-fucose compared to its affinity for L-rhamnose", "setting": "SMc02774-CY", "result": "three order-magnitude difference"}, {"measurement": "Kd", "setting": "SMc02774-CY; SMc02774-CY, pCYS (pLMB292), Tris-HCl pH 8.5", "result": 3.6, "unit": "nM"}]}, {"smiles": "O=C[C@H](O)[C@@H](O)[C@H](O[C@@H]1O[C@H](CO)[C@@H](O)[C@H](O)[C@H]1O)[C@H](O)CO", "note": "[cellobiose]", "values": [{"measurement": "Kd", "setting": "SMc04259-CY", "result": 33, "unit": "nM"}, {"measurement": "change in FRET ratio on binding ligand", "setting": "SMc04259-RO", "result": "no change in FRET ratio"}]}, {"smiles": "O=C(O)/C=C/C(=O)O", "note": "[fumarate]", "values": [{"measurement": "ΔFRET on saturation (%)", "setting": "rcc03024-CY (DctP); change in FRET ratio on ligand binding", "result": "−2.7±0.2", "unit": "%"}, {"measurement": "Kd", "setting": "rcc03024-CY (DctP)", "result": 58, "unit": "nM"}]}, {"smiles": "OC[C@@H](O)[C@@H]1OC(O)[C@H](O)[C@H]1O", "note": "(stereo partly drawn) [D-galactofuranose]", "values": [{"measurement": "Kd", "setting": "RL2376-CY; hypothetical solution of pure D-galactofuranose, furanoses 7.7% of D-galactose in solution, read-out: estimated Kd for D-galactofuranose specifically", "result": "408 ± 131", "unit": "nM"}]}, {"smiles": "OC[C@H]1O[C@@H](O[C@H]2[C@H](O)[C@@H](O)[C@H](O)O[C@@H]2CO)[C@H](O)[C@@H](O)[C@H]1O", "note": "[lactose]", "values": [{"measurement": "change in FRET with compound", "setting": "SMc04259-CY", "result": "no change in FRET"}]}, {"smiles": "CC(=O)C(=O)O", "note": "[pyruvate]", "values": [{"measurement": "reaction of biosensor with compound (FRET)", "setting": "SMc02774-CY; SMc02774-CY", "result": "did not react"}, {"measurement": "change in FRET ratio on addition of compound", "setting": "rcc03024-CY (DctP)", "result": "no change in FRET ratio"}]}, {"smiles": "O=C(CO)[C@@H](O)[C@@H](O)[C@H](O)CO", "note": "[tagatose]", "values": [{"measurement": "reaction of biosensor with compound (FRET)", "setting": "SMc02324-CY", "result": "did not react"}]}, {"smiles": "O=C(O)CC(O)(CC(=O)O)C(=O)O", "note": "[citrate]", "values": [{"measurement": "change in FRET ratio on addition of compound", "setting": "rcc03024-CY (DctP)", "result": "no change in FRET ratio"}]}, {"smiles": "OC1OC[C@@H](O)[C@@H](O)[C@@H]1O", "note": "(stereo partly drawn) [D-arabinose]", "values": [{"measurement": "change in FRET ratio on addition of compound", "setting": "RL2376-CY", "result": "no change in FRET ratio"}, {"measurement": "Inducer of gene expression (fold change)", "setting": "[1]; RL2376, Table 1", "result": "D-arabinose (3.6) fold"}, {"measurement": "induction of genes RL2376-9 (fold)", "setting": "[1]; microarray, compared with cells grown on glucose", "result": "up to 3.6 fold"}]}, {"smiles": "O=C(O)CCC(=O)C(=O)O", "note": "[α-ketoglutarate]", "values": [{"measurement": "change in FRET ratio on addition of compound", "setting": "rcc03024-CY (DctP)", "result": "no change in FRET ratio"}]}, {"smiles": "O=C(O)C[C@H](O)C(=O)O", "note": "[L-malate]", "values": [{"measurement": "Kd", "setting": "rcc03024-CY (DctP)", "result": 70, "unit": "nM"}, {"measurement": "change in FRET ratio on binding ligand", "setting": "rcc03024-RO", "result": "no change in FRET ratio"}]}, {"smiles": "O=C[C@H](O)[C@@H](O)[C@H](O)CO", "note": "[xylose]", "values": [{"measurement": "change in FRET with compound", "setting": "SMc04259-CY", "result": "no change in FRET"}]}, {"smiles": "OC[C@@H](O)[C@H](O)[C@H](O)[C@@H](O)CO", "note": "[dulcitol]", "values": [{"measurement": "reaction of biosensor with compound (FRET)", "setting": "SMc02324-CY", "result": "did not react"}]}, {"smiles": "OC[C@H]1OC(O)[C@H](O)[C@@H](O)[C@@H]1O", "note": "(stereo partly shown) [glucose]", "values": [{"measurement": "change in FRET with compound", "setting": "SMc04259-CY", "result": "no change in FRET"}, {"measurement": "change in FRET ratio on addition of compound", "setting": "RL2376-CY", "result": "no change in FRET ratio"}, {"measurement": "FRET Δ ratio", "setting": "[2]", "result": "−19", "unit": "%"}, {"measurement": "FRET Δ ratio upon binding of glucose", "setting": "[3]", "result": "−8% to −28%"}]}, {"smiles": "O[C@H]1[C@H](O)[C@@H](O)[C@H](O)[C@@H](O)[C@H]1O", "note": "[myo-inositol]", "values": [{"measurement": "Kd", "setting": "SMb20712-CY", "result": 470, "unit": "nM"}]}, {"smiles": "OC[C@@H](O)[C@@H](O)CO", "note": "[erythritol]", "values": [{"measurement": "reaction of biosensor with compound (FRET)", "setting": "SMc02324-CY", "result": "did not react"}]}]}
